According to PMC11596630 (Molecules, 2024):
Like-named read-outs stand apart in the source and are kept apart here.

Experiments:
[1] = Cytotoxicity MTS assay, HEK293; type: cell-based; details: 24 h exposure
Experimental: (§1) The human hepatocyte carcinoma HepG2 (ECACC 85011430), human embryo kidney HEK293 (ECACC 85120602) and human neuroblastoma SH-SY5Y (ECACC 94030304) cell lines were obtained from the certified cell-bank European Collection of Authenticated Cell Cultures (ECACC) through Sigma-Aldrich (Steinheim, Germany). HepG2 and HEK293 cells were grown in EMEM and SH-SY5Y in DMEM-F12, as described previously, and cell cultivation and maintenance were conducted according to standard protocol. All media and supplements were purchased from Sigma-Aldrich, Steinheim, Germany.
(§2) The cytotoxic profiles of tested compounds were determined by measuring the succinate dehydrogenase mitochondrial activity of exposed cells. The commercially available MTS detection reagent assay (CellTiter 96® AQueous One Solution Cell Proliferation Assay, Promega, Madison, WI, USA) was used. The procedure followed a previously described protocol. Cells were exposed to compounds in a concentration range of 0.01–1000 µM for 24 h. DMSO (20%) was used as positive control to validate the method. After desired time of incubation at 37 °C in a 5% CO2 atmosphere, cells were washed with PBS buffer and 100 µL of EMEM or DMEM medium and 20 µL of MTS were added in each well, incubated up to 1 h after which the absorbance was read at 492 nm on an Infinite M200PRO plate reader (Tecan Austria GmbH, Salzburg, Austria). Data are presented as percentages of the inhibited cells to control untreated cells, i.e., the percentage of cytotoxicity.

purified human BChE = target: T1, purified human BChE (Homo sapiens, UniProt P06276); assay: biochemical; type: biochemical; details: for Ki: human BChE, Ki ± SE, at least three experiments, ATCh substrate
T1 construct: gift of Dr Florian Nachon, Armed Forces Biomedical Research Institute, Brétigny-sur-Orge, France
T1 sequence (P06276 29-602): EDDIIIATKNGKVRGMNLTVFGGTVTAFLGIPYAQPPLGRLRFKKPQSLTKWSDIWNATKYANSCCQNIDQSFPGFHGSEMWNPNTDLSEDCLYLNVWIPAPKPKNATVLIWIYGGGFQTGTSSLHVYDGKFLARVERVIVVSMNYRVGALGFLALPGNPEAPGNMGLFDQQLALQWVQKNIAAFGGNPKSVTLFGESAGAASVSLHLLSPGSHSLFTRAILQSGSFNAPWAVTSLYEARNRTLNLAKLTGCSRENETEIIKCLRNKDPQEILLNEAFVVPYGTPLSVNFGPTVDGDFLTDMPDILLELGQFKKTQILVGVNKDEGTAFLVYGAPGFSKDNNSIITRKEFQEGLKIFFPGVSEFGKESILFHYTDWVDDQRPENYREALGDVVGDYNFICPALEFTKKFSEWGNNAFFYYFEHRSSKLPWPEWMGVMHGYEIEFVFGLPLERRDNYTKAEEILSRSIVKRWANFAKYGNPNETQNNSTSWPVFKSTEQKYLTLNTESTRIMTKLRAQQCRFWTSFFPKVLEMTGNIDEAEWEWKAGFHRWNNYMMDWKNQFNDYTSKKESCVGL
Experimental: (§3) Acetylthiocholine (ATCh) and 5,5’-dithiobis(2-nitrobenzoic acid) (DTNB) were purchased from Sigma Chemical Co., St. Louis, MO, USA. ATCh was dissolved in water and DTNB in 0.1 M sodium phosphate buffer (pH 7.4). […] Purified human BChE and recombinant human AChE were kindly provided by Dr Florian Nachon (Département de Toxicologie, Armed Forces Biomedical Research Institute, Brétigny-sur-Orge, France). The enzymes were diluted in a phosphate sodium buffer 0.1 M (pH 7.4) containing 0.01% BSA.
(§4) Cholinesterase activity measurements, evaluation of Ki (dissociation constants of enzyme−inhibitor complex) and Ks constants (dissociation constants of enzyme−substrate complex) were performed following procedures described previously. Briefly, enzyme activity was measured spectrophotometrically using a slightly modified Ellman method. […] At least three concentrations of inhibitors for each substrate concentration were used in at least three experiments.
(§5) The y-intercept determines the enzyme–inhibitor dissociation constants (Ki), while the x-intercept determines the enzyme–substrate dissociation constant, KS [57].

recombinant human AChE = target: T2, recombinant human AChE (Homo sapiens, UniProt P22303); assay: Inhibition of human AChE (Ellman method, Hunter–Downs Ki); type: biochemical; details: for Ki: human AChE, Ki ± SE, at least three experiments, ATCh substrate; for SI = Ki(BChE)/Ki(AChE): selectivity index, AChE over BChE
T2 construct: gift of Dr Florian Nachon, Armed Forces Biomedical Research Institute, Brétigny-sur-Orge, France
T2 sequence (P22303 32-614): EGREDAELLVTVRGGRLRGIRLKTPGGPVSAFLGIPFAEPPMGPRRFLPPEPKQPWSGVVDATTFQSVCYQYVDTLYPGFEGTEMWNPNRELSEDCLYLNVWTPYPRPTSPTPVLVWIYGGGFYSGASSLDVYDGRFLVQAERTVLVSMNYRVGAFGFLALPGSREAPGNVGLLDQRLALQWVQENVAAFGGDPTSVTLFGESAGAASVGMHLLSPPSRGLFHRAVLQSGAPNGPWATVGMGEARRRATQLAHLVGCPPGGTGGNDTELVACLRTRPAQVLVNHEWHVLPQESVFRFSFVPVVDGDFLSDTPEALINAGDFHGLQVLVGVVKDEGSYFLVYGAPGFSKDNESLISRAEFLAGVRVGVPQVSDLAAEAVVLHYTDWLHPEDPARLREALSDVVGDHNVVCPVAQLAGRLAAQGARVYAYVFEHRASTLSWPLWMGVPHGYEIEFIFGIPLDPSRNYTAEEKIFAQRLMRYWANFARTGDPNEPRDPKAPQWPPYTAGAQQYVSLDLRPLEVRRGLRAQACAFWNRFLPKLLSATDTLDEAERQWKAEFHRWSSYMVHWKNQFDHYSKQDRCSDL
Experimental: as §3, §4, §5

[2] = Cytotoxicity MTS assay, SH-SY5Y; type: cell-based; details: 24 h exposure
Experimental: HepG2 and HEK293 cells were grown in EMEM and SH-SY5Y in DMEM-F12, as described previously, and cell cultivation and maintenance were conducted according to standard protocol. All media and supplements were purchased from Sigma-Aldrich, Steinheim, Germany.
as §2

[3] = Cytotoxicity MTS assay, HepG2; type: cell-based; details: 24 h exposure
Experimental: as §1, §2

[4] = FRAP assay (ferric reducing antioxidant power); details: 10 µM compound
Experimental: The in vitro antioxidant activity of tested compounds was evaluated using the FRAP assay following a procedure described earlier. […] Trolox and butylated hydroxytoluene (BHT) were used as standard antioxidants. The absorbance was recorded at 593 nm using a microplate reader (SpectraMax iD3, Molecular Devices, San Jose, CA, USA) against a blank. All measurements were taken in three independent triplicates in at least three independent experiments. FRAP values, denominating the reduction of ferric-tripyridyltriazine (Fe^3+-TPTZ) to ferrous tripyridyltriazine (Fe^2+-TPTZ) by the tested compounds, were calculated on the basis of a standard curve obtained using […].

[5] = Cytotoxicity MTS assay, over all three cell lines; type: cell-based, human; details: human, HEK293 and SH-SY5Y cells; HepG2, HEK293, SH-SY5Y; 24 h exposure
Experimental: as §1, §2

[6] = tested on: HepG2, HEK293 and SH-SY5Y; assay: Cytotoxicity MTS assay, over all three cell lines; type: cell-based, human; details: 24 h exposure
Experimental: as §1, §2

[7] = human, SH-SY5Y cells, IC50 ± SE

| Structure (SMILES) | IC50 at 24 h ([1]; human, HEK293 cells, IC50 ± SE) [mM] | Ki (purified human BChE; read-out: Ki BChE) [µM] | Ki (recombinant human AChE) [µM] | SI = Ki(BChE)/Ki(AChE) (recombinant human AChE) | IC50 at 24 h [2, 7] [mM] | IC50 at 24 h ([3]; human, HepG2 cells, in mM) [mM] | FRAP value / reducing power compared with Trolox and BHT [4] | IC50 at 24 h [5] [µM] | IC50 at 24 h ([3]; human, HepG2 cells, IC50 ± SE) [mM] | IC50 at 24 h ([1]; human, HEK293 cells, in mM) [mM] | Toxicity to any tested cell type [6] | IC50 at 24 h ([2]; human, SH-SY5Y cells, in mM) [mM] | FRAP value relative to the FRAP value for BHT [4] | IC50 at 24 h ([1]; in mM) [mM] | Ki (purified human BChE; Ki BChE) [µM] | IC50 at 24 h ([2]; IC50 ± SE) [mM] | IC50 at 24 h ([3]; in mM) [mM] | Selectivity to BChE (purified human BChE; BChE over AChE) | AChE inhibition potency, times lower compared to 2 (recombinant human AChE; fold, compared to compound 2) |
| --- | --- | --- | --- | --- | --- | --- | --- | --- | --- | --- | --- | --- | --- | --- | --- | --- | --- | --- | --- |
| CCN(CC)Cc1cc(Nc2ccnc3c(F)cccc23)ccc1O [Compound 8] | 0.134 ± 0.047 | 5.4 ± 0.5 | 0.51 ± 0.03 | 11 | 0.085 ± 0.005 | ≥ 1 | – | – | – | – | – | – | – | – | – | – | – | – | – |
| CCN(CC)Cc1cc(Nc2ccnc3ccc(F)cc23)ccc1O [Compound 7] | 0.159 ± 0.041 | 11 ± 1 | 0.051 ± 0.002 | – | 0.181 ± 0.041 | – | not more than 50% lower than those of either Trolox or BHT | ≥ 100 | 0.529 ± 0.029 | – | – | – | – | – | – | – | – | – | – |
| CCN(CC)Cc1cc(Nc2ccnc3c(C(F)(F)F)cccc23)ccc1O [Compound 10] | 0.087 ± 0.033 | 20 ± 1 | 1.2 ± 0.1 | 17 | 0.088 ± 0.008 | ≥ 1 | – | – | – | – | – | – | – | – | – | – | – | – | – |
| CCN(CC)Cc1cc(Nc2ccnc3cc(C#N)ccc23)ccc1O [Compound 3] | 0.103 ± 0.003 | 19 ± 1 | 0.078 ± 0.004 | – | 0.098 ± 0.003 | – | not more than 50% lower than those of either Trolox or BHT | ≥ 100 | 0.471 ± 0.019 | – | – | – | – | – | – | – | – | – | – |
| CCN(CC)Cc1cc(Nc2ccnc3ccc(C#N)cc23)ccc1O [Compound 12] | 0.088 ± 0.031 | 21 ± 1 | 0.19 ± 0.01 | – | 0.092 ± 0.017 | – | – | – | 0.276 ± 0.046 | – | – | – | – | – | – | – | – | – | – |
| CCN(CC)Cc1cc(Nc2ccnc3ccc(C(F)(F)F)cc23)ccc1O [Compound 9] | – | 14 ± 1 | 0.093 ± 0.003 | – | – | ≥ 1 | – | ≥ 100 | – | ≥ 1 | not toxic to any tested cell type | ≥ 1 | – | – | – | – | – | – | – |
| CCN(CC)Cc1cc(Nc2ccnc3cc([N+](=O)[O-])ccc23)ccc1O [Compound 4] | 0.033 ± 0.003 | 14 ± 1 | 0.084 ± 0.003 | – | 0.026 ± 0.004 | – | – | – | 0.039 ± 0.006 | – | – | – | – | – | – | – | – | – | – |
| CCN(CCO)Cc1cc(Nc2ccnc3cc(Cl)ccc23)ccc1O [Compound 14] | – | 6.8 ± 0.3 | 0.11 | 62 | – | ≥ 1 | greater potency than both Trolox and BHT | ≥ 100 | – | ≥ 1 | not toxic to any tested cell type | ≥ 1 | higher than 50% | – | – | – | – | – | – |
| CCN(CC)Cc1cc(Nc2ccnc3cc(Cl)ccc23)ccc1O [AMQ, Amodiaquine, reference compound] | – | – | 0.046 ± 0.001 | – | – | – | – | – | – | – | – | – | – | ≥ 1 | 9.1 ± 0.7 | 0.134 ± 0.036 | ≥ 1 | – | – |
| CCN(CC)Cc1cc(Nc2ccnc3cccc(C(=O)O)c23)ccc1O [Compound 13] | 0.103 ± 0.008 | 16 ± 1 | 1.3 ± 0.1 | 12 | 0.148 ± 0.017 | – | – | ≥ 100 | 0.546 ± 0.046 | – | – | – | – | – | – | – | – | – | – |
| CCN(CC)Cc1cc(Nc2cc(C(F)(F)F)nc3ccccc23)ccc1O [Compound 11] | 0.025 ± 0.004 | 1.7 ± 0.1 | 7.6 ± 0.3 | 0.22 | 0.035 ± 0.005 | – | not more than 50% lower than those of either Trolox or BHT | – | 0.232 ± 0.068 | – | – | – | – | – | – | – | – | about five times more selective to BChE | 100 |
| CCN(CC)Cc1cc(Nc2ccnc3cc(F)ccc23)ccc1O [Compound 1] | 0.09 ± 0.022 | 13 ± 1 | 0.17 ± 0.01 | 77 | 0.09 ± 0.01 | – | not more than 50% lower than those of either Trolox or BHT | – | 0.219 ± 0.028 | – | – | – | – | – | – | – | – | – | – |
| CCN(CC)Cc1cc(Nc2ccnc3cc(OC)ccc23)ccc1O [Compound 5] | 0.037 ± 0.011 | 7.6 ± 0.4 | 0.025 ± 0.001 | 300 | 0.036 ± 0.005 | – | not more than 50% lower than those of either Trolox or BHT | – | 0.1 ± 0.01 | – | – | – | higher than 50% | – | – | – | – | – | – |
| CCN(CC)Cc1cc(Nc2ccnc3ccccc23)ccc1O [Compound 6] | 0.35 ± 0.04 | 5.9 ± 0.8 | 0.23 ± 0.01 | 26 | 0.453 ± 0.012 | ≥ 1 | – | ≥ 100 | – | – | – | – | higher than 50% | – | – | – | – | – | – |
| CCN(CC)Cc1cc(Nc2ccnc3cc(C(F)(F)F)ccc23)ccc1O [Compound 2] | – | 7.3 ± 0.8 | 0.075 ± 0.003 | 97 | – | ≥ 1 | – | – | – | ≥ 1 | not toxic to any tested cell type | ≥ 1 | – | – | – | – | – | – | – |
